Format in all cases: physicochemical
The nature of data set [1]: Sulfate ion quantification by ion chromatography in sodium lauryl sulfate after accelerated storage. Particulars: for sulfate ion concentration in sample solution: after 4-day storage at 70° C., relative humidity about 10%, about 5 mg sample in 50 mL water. As to the method:
(§1) A sample of sodium lauryl sulfate (about 250 mg) was placed in a glass vial and stored in an open system at a temperature of 70° C. and a relative humidity of about 10% (a saturated aqueous solution of LiCl). Samples of before storage, stored for a single day, 2 days, 3 days, 4 days, 7 days and 11 days were subjected to X-ray powder diffraction performed in the conditions of Example 1.
Sulfate ions generated by decomposition of sodium lauryl sulfate in the samples of Lot 1 and Lot 2 after 4-day storage were quantified by ion chromatography shown below.
Sodium lauryl sulfate (about 5 mg) was weighed and water was added up to 50 mL. The solution was irradiated with ultrasonic wave for 15 minutes and filtered by a membrane filter (DISMIC-25HP PTFE 0.45 μm HYDROPHILIC, manufactured by ADVANTEC). The filtrate was passed through a solid-phase extraction cartridge (Dionex OnGuard II RP, manufactured by ThermoFisher Scientific) washed and the eluate was used as a sample solution. Separately, solutions having a sulfate ion concentration of 1 mg/L, 2 mg/L, 3 mg/L, 4 mg/L and 5 mg/L were prepared by use of the sulfate ion standard solution (1 g/L, manufactured by Wako Pure Chemical Industries Ltd.) for ion chromatography and used as the standard solutions. […]
The concentration of sulfate ion in a sample solution was calculated based on the calibration curve prepared by using the standard solutions.
Sodium lauryl sulfate is usually stored at room temperature; however, there are possible cases, e.g., transportation, where it is stored at a higher temperature than room temperature. […] After storage, sulfate ions generated by decomposition of sodium lauryl sulfate in the sample were quantified by ion chromatography shown in Example 4.

The nature of data set [2]: X-ray powder diffraction of sodium lauryl sulfate lots after storage under accelerated condition. The note with it: for storage period at which new XRPD peaks were first detected: open system, sulfate.
Assay in data set [3]: as above
Particulars: for storage period in which XRPD peaks of sodium lauryl sulfate-dodecanol complex were observed: 70° C., relative humidity about 10% (saturated LiCl), open system, stored up to day 11; for storage period at which new XRPD peaks (2θ around 4.9° and 7.4°) were first detected: airtight system, up to 4 days. As to the method:
Samples (appropriate amount) of different lots, Lot 1 (production date: 2015.12.22) and Lot 2 (production date: 2017.3.10)) of sodium lauryl sulfate, which were obtained from a single manufacturer and produced on different days, were placed in glass vials and stored in an airtight system under condition 1A (temperature 60° C.) and condition 1B (temperature 70° C.). Samples before storage, stored for 3 days and 4 day were subjected to X-ray powder diffraction (XRPD). Measurement was performed in the conditions shown below.
X-ray powder diffraction method: • Measuring device: X′Pert-Pro MPD (manufactured by PANalytical) • Anti-cathode: Cu • Tube voltage: 45 kV • Tube current: 40 mA • Step width: 0.02 • Scan axis: 20 • Sampling time per step: 43 seconds • Scan range: 3 to 40°
as §1

Where [4] appears, read: condition 2A: 70° C., relative humidity about 79% (saturated NaCl).
Where [5] appears, read: condition 2B: 70° C., relative humidity about 10% (saturated LiCl), up to 6 days.

As to `CCCCCCCCCCCCOS(=O)(=O)[O-].[Na+]` [Lot 1, sodium lauryl sulfate], the “sulfate ion concentration in sample solution” value in data set [1] amounted to 24.1 mg/L. The “storage period at which new XRPD peaks were first detected” value in data set [2] (setting [4]) was determined as 1 days; in data set [2] (setting [5]) it was 3 days. Moreover, the “physical state of sample after storage” value in data set [2] (condition 2A: 70° C., relative humidity about 79%, 2-days and 3-days storage) was “changed to a liquid state”. Moreover, in data set [3], the “storage period in which XRPD peaks of sodium lauryl sulfate-dodecanol complex were observed” value is no less than 3 days. Besides, the results for the “storage period at which new XRPD peaks (2θ around 4.9° and 7.4°) were first detected” value in data set [3] (condition 1A: 60° C.) and in data set [3] (condition 1B: 70° C.) were 4 days and 3 days, respectively.

For the compound `CCCCCCCCCCCCOS(=O)(=O)[O-].[Na+]` [Lot 2, sodium lauryl sulfate], the “sulfate ion concentration in sample solution” value in data set [1] was no more than 1 mg/L. For the same compound, the figures for the “storage period at which new XRPD peaks were first detected” value in data set [2] (setting [4]) and in data set [2] (setting [5]) were 3 days and greater than 6 days, respectively. In addition, the “storage period in which XRPD peaks of sodium lauryl sulfate-dodecanol complex were observed” value in data set [3] is greater than 11 days. The “storage period at which new XRPD peaks (2θ around 4.9° and 7.4°) were first detected” value in data set [3] (condition 1A: 60° C.) and in data set [3] (condition 1B: 70° C.) was greater than 4 days throughout.

On to `CCCCCCCCCCCCOS(=O)(=O)[O-].[Na+]` [Lot 5, sodium lauryl sulfate], for which the “sulfate ion concentration detected by ion chromatography” value in data set [1] (prior storage under Conditions 1-17 of Table 1 (30-40° C. 45 days plus up to 48 hours at up to 60° C.), then 70° C., about 10% RH, 4 days) is no more than 1 mg/L.

These data come from US20240100058A1, “METHOD FOR SELECTING, ASSESSING, OR PRODUCING SODIUM LAURYL SULFATE AS RAW MATERIAL FOR PHARMACEUTICAL FORMULATION, OR FORMULATION OR THE LIKE CONTAINING SAME” (Chugai Seiyaku Kabushiki Kaisha, priority 2019, published 2024).
